# Where a name gives a salt, the structure may show the parent alone. Read-outs that look alike come from different tables or passages of the source.
# Key:
# L5178Y cells [1] = experiment: In vitro micronucleus test, flow cytometric (EMA/SYTOX) and microscopy scoring, L5178Y cells
# Description: L5178Y cells were treated over a range of chemical concentrations in culture medium, one 25 cm^2 flask per concentration. During treatment, cells were at 3×10^5/ml in a volume of 20 ml per flask (this high number of cells facilitated multiple readings per flask). After a 4 hr treatment period, cells were washed one time via centrifugation at 600×g, resuspended in a volume of 40 ml culture medium, and transferred to 75 cm^2 flasks. Cells were re-incubated at 37° C. for 20 additional hrs—the equivalent of two normal doubling times.
# In this case, cultures (1.5×10^5 cells/ml, 40 ml/flask) were continuously exposed to chemical over a range of concentrations. Cells were harvested after 24 hrs of incubation at 37° C. without recovery.
# At the time of cell harvest, FDA+ and PI+ cell counts were performed as described supra. […] Cells were collected via centrifugation at approximately 600×g for 5 minutes. Supernatants were aspirated, and cells were resuspended with gentle tapping. […] These tubes were placed in racks and submerged to a depth of approximately 2 cm in crushed ice. A visible light source (60 watt light bulb) was positioned approximately 30 cm above the tubes for 20 minutes.
# After the photoactivation period, 800 μl cold buffer solution was added to each sample. From this point forward, exposure of samples to light was minimized with dim lighting and foil. The contents of the tubes were then transferred to 15 ml polypropylene centrifuge tubes, and 8 ml of cold buffer solution was added to each sample. Cells were collected via centrifugation, and supernatants aspirated such that approximately 50 μl of supernatant remained per tube. Cells were gently resuspended with tapping, and were maintained at room temperature until the follow procedures were initiated (within 30 minutes). 1 ml “Lysis Solution 1” was added slowly to each tube (approximately 15 seconds per sample). […] Upon addition of Lysis Solution 1, the tube was immediately vortexed (medium setting) for 5 seconds. These samples were kept at room temperature for 1 hr. At this time, 1 ml “Lysis Solution 2” was injected forcefully into each tube, which were immediately vortexed (medium) for 5 seconds. […] These specimens were maintained at room temperature for 30 minutes. Subsequently, samples were stored at 4° C. until flow cytometric analysis (up to two days following cell harvest/staining/lysis procedures).
# (§1) Samples, stored for up to two days at 4° C., were gently tapped to resuspend the particles. Data acquisition and analysis was then accomplished with a single-laser flow cytometer, 488 nm excitation (FACSCalibur, BD Biosciences, San Jose, Calif.). Instrumentation settings and data acquisition/analysis were controlled with CellQuest software v3.3 (BD Biosciences). SYTOX-associated fluorescence emission was collected in the FL1 channel (530/30 band-pass filter), and EMA-associated fluorescence was collected in the FL3 channel (670 long-pass filter). Events were triggered on FL1 fluorescence. The FCM gating strategy that was developed for this micronuclei scoring application required events to meet each of six separate criteria before they were scored as nuclei or micronuclei (see FIGS. 2A-H). The incidence of flow cytometric-scored micronuclei is expressed as frequency percent (no. micronuclei/no. nuclei×100), and are based on the acquisition of 20,000 EMA-negative nuclei per specimen.
# Approximately 3.5×10^6 cells per culture were centrifuged and resuspended with 20 μl heat-inactivated fetal bovine serum. 5 μl aliquots were applied to glass slides. Air dried slides were submerged in absolute methanol for 10 minutes and then stored in the dark until staining and analysis. […] An Olympus BH-2 fluorescence microscope was used for micronuclei measurements at 400× magnification. For each treated culture, 2000 mononucleated, non-apoptotic, non-necrotic cells were analyzed for the presence of micronuclei (1000 cells×2 slides per culture).
# L5178Y cells [2] = system: L5178Y cells
# Description: as §1
# That is, by displaying the SYTOX-associated signal as fluorescence area (FL1-A), qualitative assessments of cell cycle-related effects were possible. […] Note that while these observations are presented in a qualitative manner, software packages are available which are capable of deconvoluting such histograms to provide quantitative assessment of cell cycle effects.
# CHO-K1 cells = experiment: In vitro micronucleus test, flow cytometric and microscopy scoring, CHO-K1 cells; assay type: cell-based, Chinese hamster; settings: 4 hr treatment, 20 hr recovery, 0-40 μg/ml, FIG. 8
# Description: On the day before treatment, CHO-K1 cells were harvested and counted, and their density was adjusted to 6×10^4/ml in culture medium. This cell suspension was added to 75 cm^2 flasks (20 ml per flask; one flask per exposure group). After incubating for approximately 16 to 24 hrs at 37° C., spent culture medium was replaced with 20 ml fresh, pre-warmed medium per flask. Methyl methanesulfonate was added from 1000× strength stock solutions for final concentrations of 0, 10, 20, 30, and 40 μg/ml, at which time cultures where reincubated at 37° C. After a 4 hr treatment period, culture medium was aspirated, cells were rinsed one time with an isotonic salt solution, and then 20 ml fresh, pre-warmed culture medium was added to each flask. These cultures were reincubated for a 20 hr recovery period. At the time of cell harvest, 2.5 ml typsin/EDTA solution per flask was used to detach cells from culture vessels. Cells were collected via centrifugation and responded in culture medium.
# (§2) Events were triggered on FL1 fluorescence.
# 5 μl aliquots were applied to glass slides.
# L5178Y cells [3] = experiment: Cytotoxicity, % EMA-positive events by flow cytometry; assay type: cell-based
# Text: as §2
# In addition to supplying genotoxicity and cell cycle information, these flow cytometric analyses were capable of concurrently providing a measure of cytotoxicity. Specifically, the frequency of EMA-positive events is a statistic that relates to membrane integrity. […] This statistic could be useful for helping to identify chemical concentrations that are too cytotoxic for reliable genotoxicity assessment.
# L5178Y cells [4] = system: L5178Y cells; remark: listed apart in the source
# Description: Once L5178Y or CHO-K1 cells were collected as described above, cytotoxicity measurements were performed as follows: 0.5 ml of each culture was added to flow cytometry tubes containing fluorescein diacetate (“FDA”) (0.075 μg/ml), propidium iodide (“PI”) (25 μg/ml), and 2.5 μm Carmine 580/620 microspheres (Molecular Probes, Eugene, Oreg.). The concentration of these “counting beads” was determined with a hemacytometer. […] Relative survival was then calculated as follows: The number of FDA+ cells in each chemical treatment culture was expressed as a percentage of the number of FDA+ cells in the concurrent solvent control culture.
Cell Cycle Effect (L5178Y cells [2]),SMILES,MN Induction (≥3-fold) (L5178Y cells [1]),also measured
−,OC[C@H]1O[C@@](CO)(O[C@H]2O[C@H](CO)[C@@H](O)[C@H](O)[C@H]2O)[C@@H](O)[C@@H]1O [Sucrose],,"% EMA-positive events (L5178Y cells [3]): non-cytotoxic; micronucleus-induction (L5178Y cells [1]; L5178Y cells, continuous-treatment exposure (24 hr)): not evident"
,O=P1(N(CCCl)CCCl)NCCCO1 (centres unmarked) [Cyclophosphamide monohydrate],,"MN Induction (≥3-fold) (L5178Y cells [1]; L5178Y cells, treatment/recovery 4/20 hrs, benzo[a]pyrene and cyclophosphamide with 10% v/v metabolic activation system): Yes"
−,C[C@@H]1C[C@H]2[C@@H]3CCC4=CC(=O)C=C[C@]4(C)[C@@]3(F)[C@@H](O)C[C@]2(C)[C@@]1(O)C(=O)CO [Dexamethasone],No,changes in % micronuclei (L5178Y cells [1]): Nil to slight changes; increase in % micronuclei relative to solvent control (L5178Y cells [1]; mouse): less than 3 fold; cell survival (L5178Y cells [4]): significantly affected cell survival
+++,NC(=O)NO [Hydroxyurea],Yes,
+++,CC[C@]1(O)C[C@@H]2CN(CCc3c([nH]c4ccccc34)[C@@](C(=O)OC)(c3cc4c(cc3OC)N(C)[C@H]3[C@@](O)(C(=O)OC)[C@H](OC(C)=O)[C@]5(CC)C=CCN6CC[C@]43[C@@H]65)C2)C1 [Vinblastine sulfate],Yes,"micronucleus response, continuous 24 hr exposure versus short-term treatment (L5178Y cells [1]): greater"

SMILES,Cell Cycle Effect (L5178Y cells [2]),MN Induction (≥3-fold) (L5178Y cells [1]),also measured
COS(C)(=O)=O [Methyl methanesulfonate],+++,Yes,micronucleus frequency (CHO-K1 cells): dose-related increase
